Measured values taken from patent US20120302740A1, “VINCRISTINE IMMUNOASSAY” (SALADAX BIOMEDICAL INC., priority 2010, published 2012).
Where a name gives a salt, the structure may show the parent alone.

What was measured:
[1] = tested on: antibodies to vincristine; assay: Indirect competitive microtiter plate immunoassay (ELISA), pool of antibodies to vincristine; type: binding, mouse; conditions: for reactivity of the antibodies of this invention (in words): summary of Tables I and II
Description: (§1) The ELISA method for measuring vincristine concentrations was performed in polystyrene microtiter plates (Nunc MaxiSorp F8 Immunomodules) optimized for protein binding and containing 96 wells per plate. Each well was coated with vincristine [5]-BSA conjugate (prepared as in Example 5) by adding 300 μl, of vincristine [5]-BSA conjugate at 10 μg/mL in 0.05M sodium carbonate, pH 9.6, and incubating for three hours at room temperature. The wells were washed with 0.05M sodium carbonate, pH 9.6 and then were blocked with 375 μL of 5% sucrose, 0.2% sodium caseinate solution for 30 minutes at room temperature. After removal of the blocking solution the plates were dried at 37° C. overnight.
This procedure is to find the dilution of antibody or anti-serum to be tested for displacement as in Example 9. The ELISA method for screening vincristine antibodies (produced in Example 6) was performed with the microtiter plates that were sensitized with vincristine-BSA conjugate prepared in Example 7. The antibody screening assay was performed by diluting the murine serum from test bleeds (as in Example 6a) containing polyclonal vincristine antibodies to 1:2,000, 1:6,000, 1:18,000 and 1:54,000 (volume/volume) in phosphate buffered saline containing 0.1% BSA and 0.01% thimerosal. […] (volume/volume) in phosphate buffered saline containing 0.1% BSA and 0.01% thimerosal. To each well of vincristine-BSA sensitized wells (prepared in Example 7)50 μL phosphate buffered saline containing 0.1% BSA and 0.01% thimerosal and 50 μL of diluted antibody were added and incubated for 10 minutes at room temperature with shaking. During this incubation antibody binds to the vincristine-BSA conjugate passively absorbed in the wells (Example 7). The wells of the plates were washed three times with 0.02 M TRIS, 0.9% NaCl, 0.5% Tween-80 and 0.001% thimerosal, pH 7.8 to remove any unbound antibody. […] After an incubation of 10 minutes at room temperature with shaking, during which the goat anti-mouse antibody-HRP enzyme conjugate binds to vincristine antibodies in the wells, the plates were again washed three times to remove unbound goat anti-mouse antibody-HRP enzyme conjugate. To develop a measurable color in the wells washing was followed by the addition of 100 μL of TMB (TMB Substrate, BioFx), the substrate for HRP, to develop color during a 10 minute incubation with shaking at room temperature. Following the incubation for color development, 50 μL of stop solution (1.5% sodium fluoride in diH2O) was added to each well to stop the color development and after 10 seconds of shaking the absorbance was determined at 650 nm (Molecular Devices Plate Reader). The amount of antibody in a well was proportional to the absorbance measured and was expressed as the dilution (titer) resulting in an absorbance of 1.5. Titers were determined by graphing antibody dilution of the antibody measured (x-axis) vs. absorbance 650 nm (y-axis) and interpolating the titer at an absorbance of 1.5. The titer which produced absorbance of 1.5 determined the concentration (dilution) of antibody used in the indirect competitive microtiter plate assay described in Example 9.
Indirect Competitive Microtiter Plate Immunoassay Procedure Determining IC50 and Cross-Reactivity for Antibodies to Vincristine
The ELISA method for determining IC50 values and cross-reactivity was performed with the microtiter plates that were sensitized with vincristine [5]-BSA conjugates as described in Example 7. […]

[2] = tested on: polyclonal antibodies to vincristine, bleed G1M3; assay: Indirect competitive microtiter plate immunoassay (ELISA), polyclonal antiserum bleed G1M3; type: binding, mouse; conditions: relative to vincristine, vincristine [5]-BSA coated plates
Description: as §1
(§2) This procedure is to find the dilution of antibody or anti-serum to be tested for displacement as in Example 9. […] Following the incubation for color development, 50 μL of stop solution (1.5% sodium fluoride in diH2O) was added to each well to stop the color development and after 10 seconds of shaking the absorbance was determined at 650 nm (Molecular Devices Plate Reader). The amount of antibody in a well was proportional to the absorbance measured and was expressed as the dilution (titer) resulting in an absorbance of 1.5. Titers were determined by graphing antibody dilution of the antibody measured (x-axis) vs. absorbance 650 nm (y-axis) and interpolating the titer at an absorbance of 1.5. […]

[3] = tested on: monoclonal antibody to vincristine 8B6.23.23; assay: Indirect competitive microtiter plate immunoassay (ELISA), monoclonal antibody 8B6.23.23; type: binding, mouse; conditions: relative to vincristine, vincristine [5]-BSA coated plates
Description: as §1
(§3) This procedure is to find the dilution of antibody or anti-serum to be tested for displacement as in Example 9. The ELISA method for screening vincristine antibodies (produced in Example 6) was performed with the microtiter plates that were sensitized with vincristine-BSA conjugate prepared in Example 7. The antibody screening assay was performed by diluting the murine serum from test bleeds (as in Example 6a) containing polyclonal vincristine antibodies to 1:2,000, 1:6,000, 1:18,000 and 1:54,000 (volume/volume) in phosphate buffered saline containing 0.1% BSA and 0.01% thimerosal. […] (volume/volume) in phosphate buffered saline containing 0.1% BSA and 0.01% thimerosal. To each well of vincristine-BSA sensitized wells (prepared in Example 7)50 μL phosphate buffered saline containing 0.1% BSA and 0.01% thimerosal and 50 μL of diluted antibody were added and incubated for 10 minutes at room temperature with shaking. During this incubation antibody binds to the vincristine-BSA conjugate passively absorbed in the wells (Example 7). The wells of the plates were washed three times with 0.02 M TRIS, 0.9% NaCl, 0.5% Tween-80 and 0.001% thimerosal, pH 7.8 to remove any unbound antibody. […] Following the incubation for color development, 50 μL of stop solution (1.5% sodium fluoride in diH2O) was added to each well to stop the color development and after 10 seconds of shaking the absorbance was determined at 650 nm (Molecular Devices Plate Reader). The amount of antibody in a well was proportional to the absorbance measured and was expressed as the dilution (titer) resulting in an absorbance of 1.5. Titers were determined by graphing antibody dilution of the antibody measured (x-axis) vs. absorbance 650 nm (y-axis) and interpolating the titer at an absorbance of 1.5. The titer which produced absorbance of 1.5 determined the concentration (dilution) of antibody used in the indirect competitive microtiter plate assay described in Example 9. […]

[4] = tested on: polyclonal antibodies to vincristine, bleed G2M1; assay: Indirect competitive microtiter plate immunoassay (ELISA), polyclonal antiserum bleed G2M1; type: binding, mouse; conditions: relative to vincristine, vincristine [5]-BSA coated plates
Description: as §1, §2

[5] = cited from earlier work
[6] = tested on: monoclonal antibody to vincristine 1D12.10; assay: Indirect competitive microtiter plate immunoassay (ELISA), monoclonal antibody 1D12.10; type: binding, mouse; conditions: relative to vincristine, vincristine [5]-BSA coated plates
Description: as §1, §3

[7] = tested on: polyclonal antibodies to vincristine, bleed G2M5; assay: Indirect competitive microtiter plate immunoassay (ELISA), polyclonal antiserum bleed G2M5; type: binding, mouse; conditions: relative to vincristine, vincristine [5]-BSA coated plates
Description: as §1, §2

[8] = tested on: polyclonal antibodies to vincristine, bleed G1M4; assay: Indirect competitive microtiter plate immunoassay (ELISA), polyclonal antiserum bleed G1M4; type: binding, mouse; conditions: relative to vincristine, vincristine [5]-BSA coated plates
Description: as §1, §2

[9] = tested on: polyclonal antibodies to vincristine, bleed G1M1; assay: Indirect competitive microtiter plate immunoassay (ELISA), polyclonal antiserum bleed G1M1; type: binding, mouse; conditions: relative to vincristine, vincristine [5]-BSA coated plates
Description: as §1, §2

[10] = single one minute intravenous injection of 1-2 mg per m^2 body surface area

| Compound | reactivity of the antibodies of this invention (in words) [1] | Cross-reactivity of competitive immunoassay [2] | Cross-reactivity of competitive immunoassay [3] | Cross-reactivity of competitive immunoassay [4] | difference in total dose exposure (inter-/intra-patient variability) ([5]; Crom et al., 1994) | interpatient variability in clearance ([5]; Gidding et al., 1999, Groninger et al., 2002) | Cross-reactivity of competitive immunoassay [6] | Cross-reactivity of competitive immunoassay [7] | Cross-reactivity of competitive immunoassay [8] | Cross-reactivity of competitive immunoassay [9] | percent cross-reactivities relative to vincristine ([1]; measured with this pool of antibodies) | elimination half-life [5, 10] | time to distribution into tissue [5, 10] |
| --- | --- | --- | --- | --- | --- | --- | --- | --- | --- | --- | --- | --- | --- |
| [H][C@@]12C[N@@](CCc3c([nH]c4ccccc34)[C@@](C(=O)OC)(c3cc4c(cc3OC)N(C=O)[C@]3([H])[C@]45CC[N@@]4CC=C[C@@](CC)([C@@H](OC(C)=O)[C@]3(O)C(=O)OC)[C@]45[H])C1)C[C@](O)(CC)C2 [Vincristine, vincristine] | substantially selectively reactive | 100% | 100% | 100% | up to 40 fold | up to 25 fold | 100% | 100% | 100% | 100% |  |  |  |
| vindesine | substantially non-cross-reactive |  | <0.1% |  |  |  | <0.1% |  |  |  |  |  |  |
| CCC1=C[C@@H]2CN(C1)Cc1c([nH]c3ccccc13)[C@@](C(=O)OC)(c1cc3c(cc1OC)N(C)[C@H]1[C@@](O)(C(=O)OC)[C@H](OC(C)=O)[C@]4(CC)C=CCN5CC[C@]31[C@@H]54)C2 [Vinorelbine, vinorelbine] | substantially non-cross-reactive |  | 0.7% |  |  |  | <0.1% |  |  |  |  |  |  |
| CC[C@]1(O)C[C@@H]2CN(CCc3c([nH]c4ccccc34)[C@@](C(=O)OC)(c3cc4c(cc3OC)N(C)[C@H]3[C@@](O)(C(=O)OC)[C@H](OC(C)=O)[C@]5(CC)C=CCN6CC[C@]43[C@@H]65)C2)C1 [Vinblastine, vinblastine] | substantially non-cross-reactive | <3.9% | 0.3% | <3.4% |  |  | <0.1% | <2% | <4.1% | <0.9% | less than 5% |  |  |
| CC[C@]1(O)C[C@H]2CN(CCc3c([nH]c4ccccc34)[C@@](C(=O)OC)(c3cc4c(cc3OC)N(C=O)[C@H]3[C@@](O)(C(=O)OC)[C@H](OC(C)=O)[C@]5(CC)C=CCN6CC[C@]43[C@@H]65)C2)C1 [Vincristine sulfate] |  |  |  |  |  |  |  |  |  |  |  | 19 to 155 h | ≤ 10 min |
